Measurements taken from patent publication US9550772B2, “Azaindole derivatives as multi kinase inhibitors” (ORIBASE PHARMA, priority 2012, dated 2017).
pEC50: −log10 of the molar value. Read-outs that look alike come from different tables or passages of the source.

Assays:
BRAF = molecular target: T1, BRAF (Homo sapiens, UniProt P15056); assay: In vitro kinase assay (Z'-LYTE, Invitrogen); format: biochemical; details: compound at 100 nM, ATP Km apparent, read-out: % of inhibition of the kinase compared to the control
T1 construct: purchased Invitrogen
Protocol: (§1) The inhibitory activity of the compounds on 7 kinases (BRAF, EGFR (ErbB1), EGFR (ErbB1) T790M L858R, FGFR2, KDR (VEGFR2), PDGFRA (PDGFR alpha), SRC) was evaluated by Invitrogen using the Z′-LYTE® technology. Briefly, the Z′-LYTE® biochemical assay employs a fluorescence-based, coupled-enzyme format and is based on the differential sensitivity of phosphorylated and non-phosphorylated peptides to proteolytic cleavage. The peptide substrate is labeled with two fluorophores—one at each end—that make up a FRET pair. A ratiometric method, which calculates the ratio (the Emission Ratio) of donor emission to acceptor emission after excitation of the donor fluorophore at 400 nm, is used to quantitate reaction progress.
(§2) The compounds are screened in 1% DMSO (final) in the well. For 10 point titrations, 3-fold serial dilutions are conducted from the starting concentration. All Peptide/Kinase Mixtures are diluted to a 2× working concentration in the appropriate Kinase Buffer. All ATP Solutions are diluted to a 4× working concentration in Kinase Buffer (50 mM HEPES pH 7.5, 0.01% BRIJ-35, 10 mM MgCl2, 1 mM EGTA). ATP Km apparent is previously determined using a Z′-LYTE® assay.
(§3) Each compound was incubated at a concentration of 100 nM and the tables 21 to 27 summarize the results obtained showing the inhibitory power of a compound.

EGFR (ErbB1) = molecular target: T2, EGFR (ErbB1) (Homo sapiens, UniProt P00533); assay: In vitro kinase assay (Z'-LYTE, Invitrogen); format: biochemical; details: compound at 100 nM, ATP Km apparent, read-out: % of inhibition of the kinase compared to the control
T2 construct: purchased Invitrogen
T2 sequence (P00533 25-1210): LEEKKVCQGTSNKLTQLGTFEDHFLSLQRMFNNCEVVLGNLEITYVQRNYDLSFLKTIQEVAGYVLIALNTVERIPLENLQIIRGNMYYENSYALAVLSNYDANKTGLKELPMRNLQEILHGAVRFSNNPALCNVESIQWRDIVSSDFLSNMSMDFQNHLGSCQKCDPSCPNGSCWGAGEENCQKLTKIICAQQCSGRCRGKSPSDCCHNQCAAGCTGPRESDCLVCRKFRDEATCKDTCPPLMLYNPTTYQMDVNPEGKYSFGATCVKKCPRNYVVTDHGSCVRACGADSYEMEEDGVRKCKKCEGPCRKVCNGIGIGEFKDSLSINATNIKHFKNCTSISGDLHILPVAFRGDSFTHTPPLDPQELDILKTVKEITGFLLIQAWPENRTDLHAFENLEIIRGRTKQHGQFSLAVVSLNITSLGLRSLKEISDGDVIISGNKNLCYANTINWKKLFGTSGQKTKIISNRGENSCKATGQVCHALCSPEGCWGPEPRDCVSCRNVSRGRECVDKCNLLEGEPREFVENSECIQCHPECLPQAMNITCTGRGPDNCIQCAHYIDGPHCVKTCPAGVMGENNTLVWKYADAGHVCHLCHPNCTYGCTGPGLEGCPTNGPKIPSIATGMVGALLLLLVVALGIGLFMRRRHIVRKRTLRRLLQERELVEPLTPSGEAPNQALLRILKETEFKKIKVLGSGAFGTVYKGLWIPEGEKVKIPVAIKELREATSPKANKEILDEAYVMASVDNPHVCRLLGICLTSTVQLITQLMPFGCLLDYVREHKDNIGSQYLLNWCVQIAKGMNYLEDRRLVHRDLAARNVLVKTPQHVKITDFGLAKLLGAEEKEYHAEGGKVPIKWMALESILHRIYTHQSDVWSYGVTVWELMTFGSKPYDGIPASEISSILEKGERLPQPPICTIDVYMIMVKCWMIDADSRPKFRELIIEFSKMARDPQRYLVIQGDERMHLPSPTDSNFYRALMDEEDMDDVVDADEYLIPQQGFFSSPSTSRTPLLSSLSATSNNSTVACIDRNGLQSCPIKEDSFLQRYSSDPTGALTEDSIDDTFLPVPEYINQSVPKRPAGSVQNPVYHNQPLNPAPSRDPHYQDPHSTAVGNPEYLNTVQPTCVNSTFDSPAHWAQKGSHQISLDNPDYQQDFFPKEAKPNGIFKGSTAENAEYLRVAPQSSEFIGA
Protocol: as §1, §2, §3

FGFR2 = molecular target: T3, FGFR2 (Homo sapiens, UniProt P21802); assay: In vitro kinase assay (Z'-LYTE, Invitrogen); format: biochemical; details: compound at 100 nM, ATP Km apparent, read-out: % of inhibition of the kinase compared to the control
T3 construct: purchased Invitrogen
T3 sequence (P21802 22-821): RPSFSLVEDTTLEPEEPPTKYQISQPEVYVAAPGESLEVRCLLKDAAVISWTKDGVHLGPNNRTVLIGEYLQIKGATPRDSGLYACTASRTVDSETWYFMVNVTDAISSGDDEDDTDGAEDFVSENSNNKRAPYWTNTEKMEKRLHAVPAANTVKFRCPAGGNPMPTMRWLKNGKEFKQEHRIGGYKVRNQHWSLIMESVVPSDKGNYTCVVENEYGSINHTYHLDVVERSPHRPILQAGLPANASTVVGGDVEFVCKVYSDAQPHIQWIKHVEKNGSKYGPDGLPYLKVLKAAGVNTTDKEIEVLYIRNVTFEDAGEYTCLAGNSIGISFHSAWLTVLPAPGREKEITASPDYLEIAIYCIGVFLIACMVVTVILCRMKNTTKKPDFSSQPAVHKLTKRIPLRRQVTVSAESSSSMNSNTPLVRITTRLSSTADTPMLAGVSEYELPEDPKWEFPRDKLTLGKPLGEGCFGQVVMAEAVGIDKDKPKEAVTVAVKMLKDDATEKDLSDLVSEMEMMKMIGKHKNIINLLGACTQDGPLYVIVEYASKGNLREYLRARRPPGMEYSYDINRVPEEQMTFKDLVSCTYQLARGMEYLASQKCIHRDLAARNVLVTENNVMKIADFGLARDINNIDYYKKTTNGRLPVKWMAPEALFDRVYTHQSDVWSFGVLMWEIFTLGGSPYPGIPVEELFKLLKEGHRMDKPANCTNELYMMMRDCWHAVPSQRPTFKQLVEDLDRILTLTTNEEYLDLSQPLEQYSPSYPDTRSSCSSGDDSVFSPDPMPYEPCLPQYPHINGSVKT
Protocol: as §1, §2, §3

KDR (VEGFR2) = molecular target: T4, KDR (VEGFR2) (Homo sapiens, UniProt P35968); assay: In vitro kinase assay (Z'-LYTE, Invitrogen); format: biochemical; details: compound at 100 nM, ATP Km apparent, read-out: % of inhibition of the kinase compared to the control
T4 construct: purchased Invitrogen
T4 sequence (P35968 20-1356): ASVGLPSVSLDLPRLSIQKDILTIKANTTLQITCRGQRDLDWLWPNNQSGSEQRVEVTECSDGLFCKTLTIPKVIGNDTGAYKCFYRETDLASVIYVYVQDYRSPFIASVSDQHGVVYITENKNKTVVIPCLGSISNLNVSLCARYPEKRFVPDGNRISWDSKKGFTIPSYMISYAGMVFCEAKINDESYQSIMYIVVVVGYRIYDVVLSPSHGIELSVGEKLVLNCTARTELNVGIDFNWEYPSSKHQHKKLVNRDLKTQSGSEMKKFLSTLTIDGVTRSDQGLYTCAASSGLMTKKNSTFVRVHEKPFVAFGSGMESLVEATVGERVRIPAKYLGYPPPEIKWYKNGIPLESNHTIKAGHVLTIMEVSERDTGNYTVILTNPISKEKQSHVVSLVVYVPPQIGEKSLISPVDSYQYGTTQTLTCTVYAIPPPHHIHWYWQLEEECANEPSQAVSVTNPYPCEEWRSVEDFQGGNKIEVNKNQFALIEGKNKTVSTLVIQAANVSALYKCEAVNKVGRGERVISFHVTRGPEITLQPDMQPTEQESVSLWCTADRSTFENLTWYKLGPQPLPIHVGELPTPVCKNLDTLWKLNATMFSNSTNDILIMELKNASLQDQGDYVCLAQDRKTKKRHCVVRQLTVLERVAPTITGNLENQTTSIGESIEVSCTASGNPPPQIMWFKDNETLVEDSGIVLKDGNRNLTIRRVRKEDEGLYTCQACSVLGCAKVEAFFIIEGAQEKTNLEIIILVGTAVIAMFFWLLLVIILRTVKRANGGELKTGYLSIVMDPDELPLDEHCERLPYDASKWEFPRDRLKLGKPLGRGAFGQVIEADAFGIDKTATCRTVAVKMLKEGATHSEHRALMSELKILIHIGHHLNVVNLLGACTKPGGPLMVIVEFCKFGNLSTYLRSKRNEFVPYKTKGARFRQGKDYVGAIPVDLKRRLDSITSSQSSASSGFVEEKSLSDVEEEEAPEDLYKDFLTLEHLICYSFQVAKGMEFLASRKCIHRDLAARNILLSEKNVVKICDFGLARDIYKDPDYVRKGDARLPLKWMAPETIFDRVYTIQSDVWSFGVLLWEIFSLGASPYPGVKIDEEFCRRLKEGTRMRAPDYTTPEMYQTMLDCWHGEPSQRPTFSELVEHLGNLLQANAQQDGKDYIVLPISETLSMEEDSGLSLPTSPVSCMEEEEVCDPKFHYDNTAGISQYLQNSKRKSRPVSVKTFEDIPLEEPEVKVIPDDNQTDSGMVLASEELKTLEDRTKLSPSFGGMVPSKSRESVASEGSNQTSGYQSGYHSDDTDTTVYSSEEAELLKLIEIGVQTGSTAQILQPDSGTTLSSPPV
Protocol: as §1, §2, §3

PDGFRA (PDGFR alpha) = molecular target: T5, PDGFRA (PDGFR alpha) (Homo sapiens, UniProt P16234); assay: In vitro kinase assay (Z'-LYTE, Invitrogen); format: biochemical; details: compound at 100 nM, ATP Km apparent, read-out: % of inhibition of the kinase compared to the control
T5 construct: purchased Invitrogen
T5 sequence (P16234 24-1089): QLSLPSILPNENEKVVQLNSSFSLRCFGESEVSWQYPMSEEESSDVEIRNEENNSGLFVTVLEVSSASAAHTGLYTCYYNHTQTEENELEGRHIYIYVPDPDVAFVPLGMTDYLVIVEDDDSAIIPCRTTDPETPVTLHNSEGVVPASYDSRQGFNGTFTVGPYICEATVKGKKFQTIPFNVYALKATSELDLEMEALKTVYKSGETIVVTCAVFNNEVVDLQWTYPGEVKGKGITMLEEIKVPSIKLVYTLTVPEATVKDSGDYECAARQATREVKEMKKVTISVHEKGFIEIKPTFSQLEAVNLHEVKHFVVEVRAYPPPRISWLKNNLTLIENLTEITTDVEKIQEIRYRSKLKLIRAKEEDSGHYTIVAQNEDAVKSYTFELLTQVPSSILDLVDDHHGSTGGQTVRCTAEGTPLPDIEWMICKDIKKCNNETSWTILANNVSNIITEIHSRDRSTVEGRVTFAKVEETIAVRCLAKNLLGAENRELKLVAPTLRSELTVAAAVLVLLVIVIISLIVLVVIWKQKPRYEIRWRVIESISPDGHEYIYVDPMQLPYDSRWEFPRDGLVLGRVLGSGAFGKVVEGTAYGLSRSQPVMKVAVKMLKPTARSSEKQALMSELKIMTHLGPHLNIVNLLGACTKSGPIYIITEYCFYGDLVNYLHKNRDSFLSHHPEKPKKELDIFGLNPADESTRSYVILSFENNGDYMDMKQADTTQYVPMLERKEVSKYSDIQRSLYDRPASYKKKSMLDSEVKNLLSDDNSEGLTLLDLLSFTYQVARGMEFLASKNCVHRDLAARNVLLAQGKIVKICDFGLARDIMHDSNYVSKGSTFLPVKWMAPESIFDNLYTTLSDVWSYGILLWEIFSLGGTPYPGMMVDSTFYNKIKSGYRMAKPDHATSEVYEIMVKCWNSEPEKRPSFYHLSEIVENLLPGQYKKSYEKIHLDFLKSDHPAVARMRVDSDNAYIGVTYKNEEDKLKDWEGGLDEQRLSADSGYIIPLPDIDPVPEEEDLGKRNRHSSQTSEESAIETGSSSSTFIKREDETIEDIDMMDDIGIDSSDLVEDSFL
Protocol: as §1, §2, §3

SRC = molecular target: T6, SRC (Homo sapiens, UniProt P12931); assay: In vitro kinase assay (Z'-LYTE, Invitrogen); format: biochemical; details: compound at 100 nM, ATP Km apparent, read-out: % of inhibition of the kinase compared to the control
T6 construct: purchased Invitrogen
T6 sequence (P12931 whole entry): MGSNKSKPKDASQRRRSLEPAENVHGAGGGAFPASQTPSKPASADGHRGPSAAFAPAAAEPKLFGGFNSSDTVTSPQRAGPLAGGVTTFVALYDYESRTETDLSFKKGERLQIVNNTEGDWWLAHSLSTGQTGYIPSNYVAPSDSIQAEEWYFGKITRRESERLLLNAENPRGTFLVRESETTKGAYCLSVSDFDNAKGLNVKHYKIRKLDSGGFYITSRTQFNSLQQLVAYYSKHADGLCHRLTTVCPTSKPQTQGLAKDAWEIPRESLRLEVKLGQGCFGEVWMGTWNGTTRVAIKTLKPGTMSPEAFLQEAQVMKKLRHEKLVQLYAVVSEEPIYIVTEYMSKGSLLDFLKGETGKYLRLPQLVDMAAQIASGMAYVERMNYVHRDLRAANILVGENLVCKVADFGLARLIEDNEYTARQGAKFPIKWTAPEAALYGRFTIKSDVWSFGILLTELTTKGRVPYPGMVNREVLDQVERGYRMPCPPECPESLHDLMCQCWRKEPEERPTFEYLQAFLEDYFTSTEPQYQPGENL
Protocol: as §1, §2, §3

A549 cell line = assay: In vitro cell proliferation assay (MTT); format: cell-based; details: Homo sapiens, A549, 72 h, read-out: EC50, anti-proliferative activity
Protocol: (§4) Cancer cell lines (5×10^3 cells per well) or HUVEC (1×10^4 cells per well) or HRMEC (1×10^4 cells per well) were distributed in 96-well plates and incubating in duplicate with escalating concentrations (10 nM to 3 μM) of compounds for 72 hr. Cell proliferation was measured using MTT (3[4,5-dimethylthiazol-2-yl]-2,5-diphenyltetrazolium bromide). The EC50 values were calculated from sigmoidal dose-response curves utilizing Prism 5.0 from Graph-Pad Software (GraphPad Software, La Jolla, Calif., USA), with values normalized to those of DMSO-treated control wells (0%) and 1% SDS control wells (100%).

HUVEC cells = assay: In vitro cell proliferation assay (MTT); format: cell-based; details: Homo sapiens, 72 hr, read-out: EC50, anti-proliferative activity
Protocol: as §4

HeLa cell line = assay: In vitro cell proliferation assay (MTT); format: cell-based; details: Homo sapiens, 72 hr, read-out: EC50, anti-proliferative activity
Protocol: as §4

HepG2 cell line = assay: In vitro cell proliferation assay (MTT); format: cell-based; details: Homo sapiens, HepG2, 72 hr, read-out: EC50, anti-proliferative activity
Protocol: as §4

MDA-MB-231 cell line = assay: In vitro cell proliferation assay (MTT); format: cell-based; details: Homo sapiens, MDA-MB-231, 72 hr, read-out: EC50, anti-proliferative activity
Protocol: as §4

| inhibition at 0.1 µM (BRAF) | inhibition at 0.1 µM (EGFR (ErbB1)) | inhibition at 0.1 µM (FGFR2) | inhibition at 0.1 µM (KDR (VEGFR2)) | inhibition at 0.1 µM (PDGFRA (PDGFR alpha)) | inhibition at 0.1 µM (SRC) | pEC50 (A549 cell line; EC50 ≧ 1 μM) | pEC50 (HeLa cell line; EC50 ≧ 1 μM) | pEC50 (HepG2 cell line; EC50 ≧ 1 μM) | pEC50 (MDA-MB-231 cell line; EC50 ≧ 1 μM) | pEC50 (HepG2 cell line; 100 nM < EC50 < 1 μM) | pEC50 (A549 cell line; 100 nM < EC50 < 1 μM) | pEC50 (HeLa cell line; 100 nM < EC50 < 1 μM) | pEC50 (MDA-MB-231 cell line; 100 nM < EC50 < 1 μM) | pEC50 (HeLa cell line; EC50 ≦ 100 nM) | pEC50 (MDA-MB-231 cell line; EC50 ≦ 100 nM) | Compound | pEC50 (HUVEC cells; 100 nM < EC50 < 1 μM) | pEC50 (HUVEC cells; EC50 ≧ 1 μM) | pEC50 (HUVEC cells; EC50 ≦ 100 nM) |
| --- | --- | --- | --- | --- | --- | --- | --- | --- | --- | --- | --- | --- | --- | --- | --- | --- | --- | --- | --- |
| < 50% | < 50% | < 50% | < 50% | < 50% | < 50% | ≤ 6.00 | ≤ 6.00 | ≤ 6.00 | ≤ 6.00 |  |  |  |  |  |  | COC(=O)c1cc2cc(CCc3cccc(NC(=S)Cc4cccc(C(F)(F)F)c4)c3)cnc2[nH]1 [OR1014, 5-(2-{3-[2-(3-Trifluoromethyl-phenyl)-thioacetylamino]-phenyl}-ethyl)-1H-pyrrolo[2,3-b]pyridine-2-carboxylic acid methyl ester] | 6.00 to 7.00 |  |  |
| ≥ 50% | < 50% | < 50% | < 50% | < 50% | < 50% | ≤ 6.00 | ≤ 6.00 |  | ≤ 6.00 | 6.00 to 7.00 |  |  |  |  |  | CC(=O)c1cc2cc(CCc3cc(NC(=O)Cc4cccc(C(F)(F)F)c4)ccc3C)cnc2[nH]1 [OR0966, N-{3-[2-(2-Acetyl-1H-pyrrolo[2,3-b]pyridin-5-yl)-ethyl]-4-methyl-phenyl}-2-(3-trifluoromethyl-phenyl)-acetamide] |  | ≤ 6.00 |  |
| < 50% | ≥ 50% | < 50% | < 50% | ≥ 50% | ≥ 50% | ≤ 6.00 | ≤ 6.00 | ≤ 6.00 | ≤ 6.00 |  |  |  |  |  |  | COC(=O)c1cc2cc(CCc3cc(NC(=O)C4CCC(C(F)(F)F)CC4)ccc3C)cnc2[nH]1 (centres unmarked) [OR1057, 5-(2-{2-Methyl-5-[(4-trifluoromethyl-cyclohexanecarbonyl)-amino]-phenyl)-ethyl)-1H-pyrrolo[2,3-b]pyridine-2-carboxylic acid methyl ester] |  | ≤ 6.00 |  |
| < 50% | ≥ 50% | ≥ 50% | ≥ 50% | ≥ 50% | ≥ 50% | ≤ 6.00 | ≤ 6.00 | ≤ 6.00 | ≤ 6.00 |  |  |  |  |  |  | COC(=O)c1cc2cc(C=Nc3cc(NC(=O)c4ccc(CN5CCN(C)CC5)c(C(F)(F)F)c4)ccc3C)cnc2[nH]1 [OR1070, 5-({2-Methyl-5-[4-(4-methyl-piperazin-1-ylmethyl)-3-trifluoromethyl-benzoylamino]-phenylimino}-methyl)-1H-pyrrolo[2,3-b]pyridine-2-carboxylic acid methyl ester] |  | ≤ 6.00 |  |
| < 50% | < 50% | < 50% | ≥ 50% |  |  | ≤ 6.00 | ≤ 6.00 | ≤ 6.00 | ≤ 6.00 |  |  |  |  |  |  | COC(=O)c1cc2cc(CNCc3cccc(NC(=O)c4ccc(CN5CCN(C)CC5)c(C(F)(F)F)c4)c3)cnc2[nH]1 [OR1020, 5-({3-[4-(4-Methyl-piperazin-1-ylmethyl)-3-trifluoromethyl-benzoylamino]-benzylamino}-methyl)-1H-pyrrolo[2,3-b]pyridine-2-carboxylic acid methyl ester] |  | ≤ 6.00 |  |
| < 50% | ≥ 50% | ≥ 50% | ≥ 50% |  |  | ≤ 6.00 | ≤ 6.00 | ≤ 6.00 | ≤ 6.00 |  |  |  |  |  |  | COC(=O)c1cc2cc(CCc3cc(NC(=O)c4ccc(CN5CCC(N(C)C)C5)c(C(F)(F)F)c4)ccc3Cl)cnc2[nH]1 (centres unmarked) [OR1007, 5-(2-{2-Chloro-5-[4-(3-dimethylamino-pyrrolidin-1-ylmethyl)-3-trifluoromethyl-benzoylamino]-phenyl}-ethyl)-1H-pyrrolo[2,3-b]pyridine-2-carboxylic acid methyl ester] | 6.00 to 7.00 |  |  |
| < 50% | ≥ 50% | ≥ 50% | ≥ 50% |  |  |  |  | ≤ 6.00 |  |  | 6.00 to 7.00 | 6.00 to 7.00 | 6.00 to 7.00 |  |  | COC(=O)c1cc2cc(CCc3cc(NC(=O)c4ccc(CN5CCN(C)CC5)c(C(F)(F)F)c4)ccc3Cl)cnc2[nH]1 [OR1006, 5-(2-{2-Chloro-5-[4-(4-methyl-piperazin-1-ylmethyl)-3-trifluoromethyl-benzoylamino]-phenyl}ethyl)-1H-pyrrolo[2,3-b]pyridine-2-carboxylic acid methyl ester] |  |  | ≥ 7.00 |
| ≥ 50% | < 50% | < 50% | ≥ 50% |  |  | ≤ 6.00 | ≤ 6.00 | ≤ 6.00 | ≤ 6.00 |  |  |  |  |  |  | COC(=O)c1cc2cc(CCc3cc(NC(=O)c4cncc(C(F)(F)F)c4)ccc3Cl)cnc2[nH]1 [OR1008, 5-(2-{2-Chloro-5-[(5-trifluoromethyl-pyridine-3-carbonyl)-amino]-phenyl}-ethyl)-1H-pyrrolo[2,3-b]pyridine-2-carboxylic acid methyl ester] |  | ≤ 6.00 |  |
| < 50% | ≥ 50% | ≥ 50% | ≥ 50% |  |  |  |  |  |  | 6.00 to 7.00 | 6.00 to 7.00 |  |  | ≥ 7.00 | ≥ 7.00 | COC(=O)c1cc2cc(CCc3cccc(NC(=O)c4ccc(CN5CCN(C)CC5)c(C(F)(F)F)c4)c3)cnc2[nH]1 [OR0921, 5-(2-{3-[4-(4-Methyl-piperazin-1-ylmethyl)-3-trifluoromethyl-benzoylamino]-phenyl}-ethyl)-1H-pyrrolo[2,3-b]pyridine-2-carboxylic acid methyl ester] |  |  | ≥ 7.00 |
| < 50% | ≥ 50% | ≥ 50% | ≥ 50% |  |  | ≤ 6.00 |  | ≤ 6.00 | ≤ 6.00 |  |  | 6.00 to 7.00 |  |  |  | COC(=O)c1cc2cc(CCc3ccc(C)c(NC(=O)c4ccc(CN5CCC(N(C)C)C5)c(C(F)(F)F)c4)c3)cnc2[nH]1 (centres unmarked) [OR1044, 5-(2-{5-[4-(3-Dimethylamino-pyrrolidin-1-ylmethyl)-3-trifluoromethyl-benzoylamino]-4-methyl-phenyl}-ethyl)-1H-pyrrolo[2,3-b]pyridine-2-carboxylic acid methyl ester] | 6.00 to 7.00 |  |  |
| < 50% | < 50% | < 50% | < 50% |  |  | ≤ 6.00 | ≤ 6.00 |  | ≤ 6.00 | 6.00 to 7.00 |  |  |  |  |  | CC(=O)c1cc2cc(CCc3cc(NC(=S)Nc4cccc(C(F)(F)F)c4)ccc3C)cnc2[nH]1 [OR1017, 1-{3-[2-(2-Acetyl-1H-pyrrolo[2,3-b]pyridin-5-yl)-ethyl]-4-methyl-phenyl}-3-(3-trifluoromethyl-phenyl)-thiourea] |  | ≤ 6.00 |  |
